Data taken from patent US20240285637A1, “PHOSPHODIESTERASE INHIBITORS FOR THE MITIGATION OF FRAGILE X SYNDROME SYMPTOMS” (THE ROYAL INSTITUTION FOR THE ADVANCEMENT OF …, priority 2021, published 2024).
“Also recorded” adds a separate entry of the source.

How the values were obtained:
[1] = system: cerebellar stellate cells; experiment: Voltage-clamp recordings of pharmacologically-isolated GABAR currents, HFS paired with depolarization; format: cell-based, mouse; conditions: Fmr1 KO stellate cells
Text: (§1) Cerebellum slice preparation: Mice (P21-35) were anesthetized with isoflurane and immediately decapitated. A block of cerebellar vermis was rapidly dissected from the mouse head and submerged in an ice-cold cutting solution perfused with carbogen gas (95% O2, 5% CO2). Cutting solution contains (in mM): 235 sucrose, 2.5 KCl, 1.25 NaH2PO4, 28 NaHCO3, 0.5 CaCl2, 7 MgCl2, 28 D-glucose, 1 ascorbic acid, and 3 sodium pyruvate (pH 7.4; 305-315 mOsmol/L). The block of vermis was then fastened to a platform, transferred to the slicing chamber and again submerged in ice-cold cutting solution, bubbled with carbogen throughout the remainder of the procedure. Thin slices of cerebellar vermis (300 μm) were obtained with a vibrating tissue sectioner (Leica VT1200; Leica Instruments, Nussloch, Germany). The slices were transferred to oxygenated artificial cerebrospinal fluid (ACSF) and held at room temperature (21° C.-23° C.) for at least 1 h before recordings were performed. […]
(§2) For extracellular stimulations, thin walled borosilicate glass electrodes (OD 1.65 mm, ID 1.15 mm; King Precision Glass Inc, Claremont, CA, USA) were used with a tip resistance of <3 MΩ when filled with ACSF. […] To minimize variability between responses, the stimulating electrode was positioned 50-100 μm away from the recorded cell. […]

[2] = system: cerebellar stellate cells; experiment: Cell-attached recordings of action currents (intrinsic plasticity) after HFS of parallel fibers; format: cell-based, mouse; conditions: Fmr1 KO stellate cells, pre-treatment with 100 μM sildenafil
Text: as §1, §2

[3] = system: blood vessels in the somatosensory cortex; experiment: Acute slice vascular reactivity, somatosensory cortex; format: cell-based, mouse; parameters: effect on the NMDA response (vasodilation) / vasodilation (direct action on blood vessels): dose or concentration left out as unconfirmed; conditions: Fmr1 KO cortex, pre-incubation with sildenafil, at least some blood vessels
[4] = system: blood vessels (capillaries) in the molecular layer of the cerebellum; experiment: Acute slice vascular reactivity, cerebellar vermis slices (U46619 constriction, NMDA dilation); format: cell-based, mouse; parameters: effect on the NMDA response (vasodilation) / vasodilation (direct action on blood vessels): dose or concentration left out as unconfirmed; conditions: Fmr1 KO cerebellum, pre-incubation with sildenafil
[5] = system: Fmr1 KO mice; experiment: Prepulse inhibition of the acoustic startle response; format: in vivo, mouse; conditions: single dose of sildenafil 7.5 mg/kg i.p.
Text: Behavior experiments-prepulse inhibition: PPI of the acoustic startle response (ASR) was studied in post-pubertal (PD 56-90) animals using an SR-LAB system (San Diego Instruments, San Diego, CA, USA) comprising two sound-attenuating chambers, each equipped with a cylindrical Plexiglas animal enclosure (length 16 cm, inner diameter 8.2 cm). A speaker positioned 24 cm directly above the enclosure provided the broadband tone pulses. A piezoelectric accelerometer affixed to the animal enclosure frame was used to detect and transduce motion resulting from the animals' startle response. Tone pulse parameters were controlled by a microcomputer using the software package (SR-LAB) and interface assembly that also digitized (0-4095), rectified, and recorded stabilimeter readings. All PPI studies were conducted between 09:00 and 17:00 h. Animals randomly received either saline or sildenafil (7.5 mg/kg i.p.) treatment. […] On the first two trials, the magnitude of the startle response to a 30 ms lasting 120 dB tone was measured. […] ASR was measured at each of the four prepulse intensities on five trials; animals were randomly presented with the startle tone alone during the other 10 trials. […]

[6] = system: Fmr1 KO mice; experiment: Locomotor activity in activity boxes (open field); format: in vivo, mouse; conditions: sildenafil 7.5 mg/kg i.p.
Procedure: Behavior experiments-locomotor activity: The locomotor activity was measured in an environment (activity boxes) novel to the animals, as described previously. Briefly, mice were handled for about 5 minutes once a day for one week before the testing. On the day of testing, animals were brought in their home cages to the anteroom (a room adjacent to the testing room separated by a door) and kept there for 30 minutes before drug or vehicle administration. Animals of both genotypes were randomly divided into two groups. One group received an i.p. injection of sildenafil (7.5 mg/kg; drug dissolved in sterilized PBS with 2% DMSO) and the other group an i.p. injection of the vehicle. One hour after the drug or vehicle administrations, the animals were placed in individual activity boxes (AccuScan Instruments, Inc., Columbus, OH, USA) (L×W×H=17.5 cm×10 cm×26 cm) in a dimly lit testing room where their locomotor activity was monitored for 90 min. The activity boxes were equipped with infrared sensors; beam breaks by the animals were used to assess locomotor activity. Data were collected using the Versamax™ Software (version 4.0, 2004; AccuScan Instruments, Inc.). The total horizontal activity for the whole 90 min session was used in the analysis.

[7] = system: cerebellar stellate cells; experiment: Current-clamp recordings of PF-evoked synaptic events (GABAR plasticity); format: cell-based, mouse; conditions: Fmr1 KO stellate cells, 100 μM sildenafil
Text: as §1, §2

[8] = system: cerebellar stellate cells; experiment: Minimal stimulation protocol, evoked IPSCs before and after HFS (failure rate of GABAergic transmission); format: cell-based, mouse; conditions: Fmr1 KO stellate cells

CCCc1nn(C)c2c(=O)[nH]c(-c3cc(S(=O)(=O)N4CCN(C)CC4)ccc3OCC)nc12 [sildenafil]
GABAR plasticity (NMDAR-mediated inhibitory synapse strengthening), voltage-clamp ([1]; 100 μM sildenafil): rescued the complete loss of GABAR plasticity
baseline properties of the cells ([1]; current-clamp and voltage-clamp, data not shown): did not, however, affect baseline properties
long-term increase in baseline firing rates following HFS of PFs [2]: restored the long-term increase in baseline firing rates
effect on the NMDA response (vasodilation) [3]: rescue some of the deficits
effect on the NMDA response (vasodilation) [4]: little or no effect
deficits in prepulse inhibition (PPI) [5]: fully correct deficits; also recorded: rescued
enhanced locomotor activity / deficits in locomotion [6]: normalized the enhanced locomotor activity; also recorded: rescued
GABAR plasticity (NMDAR-mediated inhibitory synapse strengthening), current-clamp [7]: rescued the complete loss of GABAR plasticity
failure rate (mean) ([8]; 10−100 μM sildenafil in the patch electrode, baseline, n=5): 90.9+/−3.57%
failure rate, failed events (mean) ([8]; 10−100 μM sildenafil in the patch electrode, post-HFS, n=5): 59.44+/−8.36%
iLTP following HFS of parallel fibers ([8]; sildenafil in the patch electrode): remarkable restoration of iLTP
